Series [1] has as its system colon, lung and ovarian cancer cell lines. The experiment in a line: MTT cytotoxicity, comparison of TAZ LV and VL peptides. It counts as cell-based, human. The note with it: all lines tested except ES2: HCT116, HT29, SW480, OVCAR8, A549, HT1975; 72 h; 0.1 to 100 μM (FIGS. 5 to 8). As to the method:
(§1) The cytotoxicity of penetrating peptides or chemotherapeutic agents, alone or in combination, was evaluated by the (3-(4,5-dimethylthiazol-2-yl)-2,5-diphenyltetrazolium bromide) tetrazolium (MTT) reduction assay. The cells were seeded in 96-well plates (100 μL/well) at a cell density defined from growth curves. After 24 hours of incubation, cells were treated with the peptides for 72 hours. The wells were rinsed two times with RPMI. After washing, 10 μl of stock MTT solution (5 mg/ml; MTT (SIGMA #M-2128) in PBS Dubecco's 1× without Ca^2+ and Mg^2+) was added to a final volume of 100 μl of culture medium. Cell lines were incubated for additional 4 hours at 37° C. under humid atmosphere with 5% (v/v) CO2. The formation of blue formazan crystals was detected under a microscope. An equal volume of 10% SDS (MERCK, #926.238) in 10 mM HCl was added to each well and the plate was placed in the incubator overnight to dissolve formazan crystals. The plates were mixed to ensure complete solubilisation of formazan crystals and absorbance was measured at 570 nm and 620 nm. The percentage of viable cells was estimated using the formula: % cell viability=ΔOD(570-620) treated/ΔOD(570-620)control×100.

The subject of the next series is OVCAR8 cells. Nature of the series: MTT cytotoxicity assay, OVCAR8. To be noted: Table VIII, 72 h, MTT, 25% cell death. In kind it is cell-based. Here is the method:
as §1
(§2) ES2, IGROV-1, OVCAR8 and SKOV3 cell lines come from human ovarian cancer.
(§3) Cell-penetrating peptides (CPPs) comprising the binding site of TEAD to TAZ or YAP or of YAP to TEAD (TAZ, TEAD and YAP peptides, respectively) were chemically synthesized. The effect of the peptides on cell viability was assayed on several human ovarian cancer cell lines. All the ovarian cancer cell lines were treated for 72 h with different peptide concentrations. Cytotoxicity was analysed as described in example 2.
(In general: Tetrazolium assays rely on reduction of a dye to a coloured formazan, in cell work by metabolically active cells.)

Series [2] relates to MP41 uveal melanoma cells. Nature of the series: MTT cytotoxicity assay, MP41. In kind it is cell-based, human. To be noted: 72 h. Here is the method: as §1
MP41, MP46 and MP66 cell lines come from uveal melanoma patient derived xenografts. They were cultured in RPMI medium supplemented with 20% of FCS.
All the uveal melanoma cell lines were treated for 72 h with different concentrations of the peptides TAZ, “LV”, YAP and TEAD (SEQ ID NO: 35, 36, 37). Cytotoxicity was analysed as described in example 2. […] The best effect was shown in MP41 with about 40% cytotoxicity at 100 μM.

A further series has as its system H1299 cells. In kind it is cell-based. Here is the method:
(§4) H1650, H1975, H1299, A549 cell lines were cultured in DMEM medium supplemented with 10% of FCS. HBEC cell lines (wt and Ras V12) were cultured in KSFM supplemented with growth factors. All the cell lines come from human non small cell lung cancer (NSCLC).
as §1
(§5) Cell-penetrating peptides (CPPs) comprising the binding site of TEAD to TAZ or YAP or of YAP to TEAD (TAZ, TEAD and YAP peptides, respectively) were chemically synthesized. The effect of the peptides on cell viability was assayed on several human non small cell lung cancer (NSCLC) cell lines. All the lung cancer cell lines were treated for 72 h with different peptide concentrations. Cytotoxicity was analysed as described in Materials and Methods.

A further series deals with H1975 cells. In kind it is cell-based. As to the method: as §4, §1, §5
The subject of another series is A549 cells. It counts as cell-based. Here is the method: as §4, §1, §5
Another series relates to HBEC wt cells. In kind it is cell-based. To be noted: for Cell viability (%): HBEC wt. Here is the method: as §4, §1, §5
A further series relates to HBEC RasV12 cells. In kind it is cell-based. Here is the method:
as §4, §1, §5

The next series concerns H1650 cells. It counts as cell-based. Here is the method:
as §4, §1, §5

For a further series, the system named is SKOV3 cells. Nature of the series: MTT cytotoxicity assay, SKOV3. In kind it is cell-based. To be noted: Table VIII, 72 h, MTT, 25% cell death. Here is the method:
as §1, §2, §3

Another series deals with ES2 cells. The experiment in a line: MTT cytotoxicity assay, ES2. In kind it is cell-based. To be noted: 72 h. As to the method: as §1, §2, §3
Another series deals with IGROV-1 cells. The experiment in a line: MTT cytotoxicity assay, IGROV. It counts as cell-based. The note with it: Table VIII, 72 h, MTT, 25% cell death. As to the method:
as §1, §2, §3

The test system of series [3] is MP66 uveal melanoma cells. The experiment in a line: MTT cytotoxicity assay, MP66. It counts as cell-based, human. To be noted: MM66 (so in the source); 100 μM; 72 h. Here is the method: as §1, with “treated/ΔOD(570-620)control×100. […]” for “treated/ΔOD(570-620)control×100.”
(§6) All the uveal melanoma cell lines were treated for 72 h with different concentrations of the peptides TAZ, “LV”, YAP and TEAD (SEQ ID NO: 35, 36, 37). Cytotoxicity was analysed as described in example 2. […]

In series [4] the test system is MP46 uveal melanoma cells. It counts as cell-based, human. To be noted: 72 h. Here is the method:
as §1, with “treated/ΔOD(570-620)control×100. […]” for “treated/ΔOD(570-620)control×100.”
as §6

The mark [5] stands for this setting: Table II, 72 h, MTT, 25% cell death.
Where [6] appears, read: Table V, drug alone vs its vehicle (Glucose 5% or NaCl).
Setting [7] is: Table VI, peptide alone vs HPCD 10%.

Like-named read-outs stand apart in the source and are kept apart here. Peptide text beside a SMILES is read from it.

The source of these data is US20160264636A1, “PEPTIDE INHIBITORS OF TEAD/YAP-TAZ INTERACTION” (UNIVERSITE PIERRE ET MARIE CURIE (PARIS 6), priority 2013, published 2016).

“VKKKKIKAEIKI-PPHAFFVLKFWADLNWGPSGEEAGAG (VKKKKIKAEIKIPPHAFFVLKFWADLNWGPSGEEAGAG) [TAZ “VL”]”: in series [1], the “effect on cellular viability, TAZ “LV” compared with TAZ “VL”” value is given as “same effect”.

Take `CC[C@H](C)[C@H](NC(=O)[C@H](CCCCN)NC(=O)[C@H](CCCCN)NC(=O)[C@H](CCCCN)NC(=O)[C@H](CCCCN)NC(=O)[C@@H](N)C(C)C)C(=O)N[C@@H](CCCCN)C(=O)N[C@@H](C)C(=O)N[C@@H](CCC(=O)O)C(=O)N[C@H](C(=O)N[C@@H](CCCCN)C(=O)N[C@H](C(=O)N[C@@H](CCCCN)C(=O)N[C@H](C(=O)N[C@@H](C)C(=O)N[C@@H](CC(N)=O)C(=O)N[C@H](C(=O)N1CCC[C@H]1C(=O)N[C@@H](CCC(N)=O)C(=O)N[C@H](C(=O)N[C@H](C(=O)N1CCC[C@H]1C(=O)N[C@@H](CCSC)C(=O)N[C@@H](CCCNC(=N)N)C(=O)N[C@@H](CC(C)C)C(=O)N[C@@H](CCCNC(=N)N)C(=O)N[C@@H](CCCCN)C(=O)N[C@@H](CC(C)C)C(=O)N1CCC[C@H]1C(=O)N[C@@H](CC(=O)O)C(=O)O)C(C)C)[C@@H](C)O)C(C)C)[C@@H](C)O)[C@@H](C)CC)[C@@H](C)CC` [YAP] (H-VKKKKIKAEIKIKTANVPQTVPMRLRKLPD-OH): the “Letal Dose (μM) LD25” value in the series on OVCAR8 cells is over 100 µM; in the series on H1299 cells (setting [5]) it was over 100 µM; in the series on H1975 cells (setting [5]) it was over 100 µM; in the series on A549 cells (setting [5]), over 100 µM; in the series on HBEC wt cells (Table II, HBEC WT, 72 h, MTT, 25% cell death), over 100 µM; in the series on HBEC RasV12 cells (setting [5]) it was over 100 µM. Moreover, the “Letal Dose (μM) LD25” value is over 100 µM in the series with H1650 cells (setting [5]); over 100 µM in the series with SKOV3 cells; over 100 µM in the series with ES2 cells (Table VIII, MTT, 25% cell death); over 100 µM in the series on IGROV-1 cells. Also, the cytotoxicity entry in [2] (MP41, 100 μM) was “about 40%”. Besides, the “Cell viability (%)” value with H1299 cells (setting [6]) was −40.21%; in the series with H1299 cells (setting [7]), −13.8%; with H1975 cells (setting [6]), −26.22%; in the series on H1975 cells (setting [7]), −5.766%; with A549 cells (setting [6]), −23.19%; with A549 cells (setting [7]), −10.25%. Also, the “Cell viability (%)” value in the series on HBEC wt cells (setting [6]) is given as −60.73%; in the series on HBEC wt cells (setting [7]) it was −41.35%; with HBEC RasV12 cells (setting [6]) it was −72.88%; in the series with HBEC RasV12 cells (setting [7]), −44.98%; in the series on H1650 cells (setting [6]), −45.14%; in the series with H1650 cells (setting [7]), −4.488%.

Regarding `CC[C@H](C)[C@H](NC(=O)[C@H](CCCCN)NC(=O)[C@H](CCCCN)NC(=O)[C@H](CCCCN)NC(=O)[C@H](CCCCN)NC(=O)[C@@H](N)C(C)C)C(=O)N[C@@H](CCCCN)C(=O)N[C@@H](C)C(=O)N[C@@H](CCC(=O)O)C(=O)N[C@H](C(=O)N[C@@H](CCCCN)C(=O)N[C@H](C(=O)N[C@@H](CCCNC(=N)N)C(=O)N[C@@H](CC(C)C)C(=O)N[C@@H](CCC(N)=O)C(=O)N[C@@H](CC(C)C)C(=O)N[C@H](C(=O)N[C@@H](CCC(=O)O)C(=O)N[C@@H](Cc1ccccc1)C(=O)N[C@@H](CO)C(=O)N[C@@H](C)C(=O)N[C@@H](Cc1ccccc1)C(=O)N[C@H](C(=O)N[C@@H](CCC(=O)O)C(=O)N1CCC[C@H]1C(=O)N1CCC[C@H]1C(=O)N[C@@H](CC(=O)O)C(=O)N[C@@H](C)C(=O)N[C@H](C(=O)N[C@@H](CC(=O)O)C(=O)O)C(C)C)C(C)C)C(C)C)[C@@H](C)CC)[C@@H](C)CC` [TEAD] (H-VKKKKIKAEIKIRLQLVEFSAFVEPPDAVD-OH; N-terminus and C-terminus assumed), the figures for the IC50 in series [2] and in [4] were 35 µM and 44 µM, respectively. The cytotoxicity in series [3] came out at 60%.

Take `CC[C@H](C)[C@H](NC(=O)[C@H](CCCCN)NC(=O)[C@H](CCCCN)NC(=O)[C@H](CCCCN)NC(=O)[C@H](CCCCN)NC(=O)[C@@H](N)C(C)C)C(=O)N[C@@H](CCCCN)C(=O)N[C@@H](C)C(=O)N[C@@H](CCC(=O)O)C(=O)N[C@H](C(=O)N[C@@H](CCCCN)C(=O)N[C@H](C(=O)N1CCC[C@H]1C(=O)N1CCC[C@H]1C(=O)N[C@@H](Cc1c[nH]cn1)C(=O)N[C@@H](C)C(=O)N[C@@H](Cc1ccccc1)C(=O)N[C@@H](Cc1ccccc1)C(=O)N[C@@H](CC(C)C)C(=O)N[C@H](C(=O)N[C@@H](CCCCN)C(=O)N[C@@H](Cc1ccccc1)C(=O)N[C@@H](Cc1c[nH]c2ccccc12)C(=O)N[C@@H](C)C(=O)N[C@@H](CC(=O)O)C(=O)N[C@@H](CC(C)C)C(=O)N[C@@H](CC(N)=O)C(=O)N[C@@H](Cc1c[nH]c2ccccc12)C(=O)NCC(=O)N1CCC[C@H]1C(=O)N[C@@H](CO)C(=O)NCC(=O)N[C@@H](CCC(=O)O)C(=O)N[C@@H](CCC(=O)O)C(=O)N[C@@H](C)C(=O)NCC(=O)N[C@@H](C)C(=O)NCC(=O)O)C(C)C)[C@@H](C)CC)[C@@H](C)CC` [TAZ “LV”] (H-VKKKKIKAEIKIPPHAFFLVKFWADLNWGPSGEEAGAG-OH; N-terminus and C-terminus assumed): the viability entry in [2] (human, 25 µM) is “about 20%”; in [4] (human, 25 µM), “about 20%”. In addition, the “effect on cellular viability, TAZ “LV” compared with TAZ “VL”” value with ES2 cells (0.1 to 100 μM (FIG. 7)) is on record as “more effective than TAZ “VL””; in series [1], “same effect”.
